Counter-ions that a name gives are not always drawn.
How the values were obtained:
coronary blood flow = conditions: marketed antianginal drug; cited from earlier work
aortic blood flow = test: Effects on aortic blood flow; assay type: in vivo, mongrel adult dogs
Procedure, shortened: (§1)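 Readouts: aortic pressure by transducer through carotid cannula, aortic root flow electromagnetically, coronary sinus flow and oxygen tension through Morawitz cannulation. Subjects were anesthetized (pentobarbital) open-chest adult mongrel dogs of either sex given intravenous test compound or active placebo.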

[1] = tested on: coronary sinus oxygen tension; test: Effects on coronary sinus oxygen tension; assay type: in vivo, mongrel adult dogs
Procedure, shortened: as §1

[2] = tested on: arterial mean blood pressure; test: Effects on arterial mean blood pressure; assay type: in vivo, mongrel adult dogs
Procedure, shortened: as §1

coronary sinus out flow = test: Effects on coronary sinus out flow; assay type: in vivo, mongrel adult dogs
Procedure, shortened: as §1

heart rate = test: Effects on heart rate; assay type: in vivo, mongrel adult dogs
Procedure, shortened: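 Adult mongrel dogs of both sexes were anesthetized with pentobarbital and thoracotomized. Test agents, suspended or dissolved in 0.2% CMC, pH 6 HCl solution or saline, were injected intravenously into the brachial vein. Hemodynamic and coronary sinus parameters were then recorded.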

SMILES: COc1ccc(CN2CCNCC2)c(OC)c1OC [Vastarel F, 2,3,4-trimethoxybenzylpiperazine dihydrochloride, reference compound]
- depressant effect on the heart (coronary blood flow): depressant effect on the heart
- Changes (%) of basal values, aortic blood flow (aortic blood flow; 0.2 mg/kg i.v., 1 min): 0%
- Changes (%) of basal values, aortic blood flow (aortic blood flow; 0.2 mg/kg i.v., 5 min): 0%
- Changes (%) of basal values, aortic blood flow (aortic blood flow; 0.2 mg/kg i.v., 10 min): 0%
- Changes (%) of basal values, aortic blood flow (aortic blood flow; 0.2 mg/kg i.v., 20 min): 0%
- Changes (%) of basal values, aortic blood flow (aortic blood flow; 0.2 mg/kg i.v., 30 min): 0%
- Changes (%) of basal values, aortic blood flow (aortic blood flow; 0.2 mg/kg i.v., imm.): 0%
- Changes (%) of basal values, aortic blood flow (aortic blood flow; 0.6 mg/kg i.v., 1 min): +0.5%
- Changes (%) of basal values, aortic blood flow (aortic blood flow; 0.6 mg/kg i.v., 5 min): 0%
- Changes (%) of basal values, aortic blood flow (aortic blood flow; 0.6 mg/kg i.v., 10 min): -1.0%
- Changes (%) of basal values, aortic blood flow (aortic blood flow; 0.6 mg/kg i.v., 20 min): -1.0%
- Changes (%) of basal values, aortic blood flow (aortic blood flow; 0.6 mg/kg i.v., 30 min): 0%
- Changes (%) of basal values, aortic blood flow (aortic blood flow; 0.6 mg/kg i.v., imm.): +1.5%
- Changes (%) of basal values, aortic blood flow (aortic blood flow; 2.0 mg/kg i.v., 1 min): 0%
- Changes (%) of basal values, aortic blood flow (aortic blood flow; 2.0 mg/kg i.v., 5 min): +11.0%
- Changes (%) of basal values, aortic blood flow (aortic blood flow; 2.0 mg/kg i.v., 10 min): +23.0%
- Changes (%) of basal values, aortic blood flow (aortic blood flow; 2.0 mg/kg i.v., 20 min): +5.0%
- Changes (%) of basal values, aortic blood flow (aortic blood flow; 2.0 mg/kg i.v., 30 min): +5.0%
- Changes (%) of basal values, aortic blood flow (aortic blood flow; 2.0 mg/kg i.v., imm.): -78.0%
- Changes(%) of basal values, coronary sinus oxygen tension ([1]; 0.2 mg/kg i.v., 1 min): +1.0%
- Changes(%) of basal values, coronary sinus oxygen tension ([1]; 0.2 mg/kg i.v., 5 min): 0%
- Changes(%) of basal values, coronary sinus oxygen tension ([1]; 0.2 mg/kg i.v., 10 min): 0%
- Changes(%) of basal values, coronary sinus oxygen tension ([1]; 0.2 mg/kg i.v., 20 min): 0%
- Changes(%) of basal values, coronary sinus oxygen tension ([1]; 0.2 mg/kg i.v., 30 min): 0%
- Changes(%) of basal values, coronary sinus oxygen tension ([1]; 0.2 mg/kg i.v., imm.): +3.0%
- Changes(%) of basal values, coronary sinus oxygen tension ([1]; 0.6 mg/kg i.v., 1 min): +5.5%
- Changes(%) of basal values, coronary sinus oxygen tension ([1]; 0.6 mg/kg i.v., 5 min): +1.0%
- Changes(%) of basal values, coronary sinus oxygen tension ([1]; 0.6 mg/kg i.v., 10 min): 0%
- Changes(%) of basal values, coronary sinus oxygen tension ([1]; 0.6 mg/kg i.v., 20 min): 0%
- Changes(%) of basal values, coronary sinus oxygen tension ([1]; 0.6 mg/kg i.v., 30 min): 0%
- Changes(%) of basal values, coronary sinus oxygen tension ([1]; 0.6 mg/kg i.v., imm.): +9.0%
- Changes(%) of basal values, coronary sinus oxygen tension ([1]; 2.0 mg/kg i.v., 1 min): +1.5%
- Changes(%) of basal values, coronary sinus oxygen tension ([1]; 2.0 mg/kg i.v., 5 min): +2.0%
- Changes(%) of basal values, coronary sinus oxygen tension ([1]; 2.0 mg/kg i.v., 10 min): +5.0%
- Changes(%) of basal values, coronary sinus oxygen tension ([1]; 2.0 mg/kg i.v., 20 min): +3.0%
- Changes(%) of basal values, coronary sinus oxygen tension ([1]; 2.0 mg/kg i.v., 30 min): 0%
- Changes(%) of basal values, coronary sinus oxygen tension ([1]; 2.0 mg/kg i.v., imm.): +3.0%
- minimum increase in oxygen tension ([1]; until after 5-20 minutes, i.v.): 3-5%
- Changes (%) of basal values, arterial mean blood pressure ([2]; 0.2 mg/kg i.v., 1 min): -1.0%
- Changes (%) of basal values, arterial mean blood pressure ([2]; 0.2 mg/kg i.v., 5 min): -2.0%
- Changes (%) of basal values, arterial mean blood pressure ([2]; 0.2 mg/kg i.v., 10 min): -1.5%
- Changes (%) of basal values, arterial mean blood pressure ([2]; 0.2 mg/kg i.v., 20 min): 0%
- Changes (%) of basal values, arterial mean blood pressure ([2]; 0.2 mg/kg i.v., 30 min): 0%
- Changes (%) of basal values, arterial mean blood pressure ([2]; 0.2 mg/kg i.v., imm.): -3.0%
- Changes (%) of basal values, arterial mean blood pressure ([2]; 0.6 mg/kg i.v., 1 min): -2.0%
- Changes (%) of basal values, arterial mean blood pressure ([2]; 0.6 mg/kg i.v., 5 min): -1.5%
- Changes (%) of basal values, arterial mean blood pressure ([2]; 0.6 mg/kg i.v., 10 min): -1.0%
- Changes (%) of basal values, arterial mean blood pressure ([2]; 0.6 mg/kg i.v., 20 min): 0%
- Changes (%) of basal values, arterial mean blood pressure ([2]; 0.6 mg/kg i.v., 30 min): 0%
- Changes (%) of basal values, arterial mean blood pressure ([2]; 0.6 mg/kg i.v., imm.): -6.0%
- Changes (%) of basal values, arterial mean blood pressure ([2]; 2.0 mg/kg i.v., 1 min): -35.0%
- Changes (%) of basal values, arterial mean blood pressure ([2]; 2.0 mg/kg i.v., 5 min): -2.0%
- Changes (%) of basal values, arterial mean blood pressure ([2]; 2.0 mg/kg i.v., 10 min): -1.0%
- Changes (%) of basal values, arterial mean blood pressure ([2]; 2.0 mg/kg i.v., 20 min): -1.0%
- Changes (%) of basal values, arterial mean blood pressure ([2]; 2.0 mg/kg i.v., 30 min): -2.0%
- Changes (%) of basal values, arterial mean blood pressure ([2]; 2.0 mg/kg i.v., imm.): -55.0%
- Changes(%) of basal values, coronary sinus out flow (coronary sinus out flow; 0.2 mg/kg i.v., 1 min): +1.0%
- Changes(%) of basal values, coronary sinus out flow (coronary sinus out flow; 0.2 mg/kg i.v., 5 min): 0%
- Changes(%) of basal values, coronary sinus out flow (coronary sinus out flow; 0.2 mg/kg i.v., 10 min): 0%
- Changes(%) of basal values, coronary sinus out flow (coronary sinus out flow; 0.2 mg/kg i.v., 20 min): 0%
- Changes(%) of basal values, coronary sinus out flow (coronary sinus out flow; 0.2 mg/kg i.v., 30 min): 0%
- Changes(%) of basal values, coronary sinus out flow (coronary sinus out flow; 0.2 mg/kg i.v., 40 min): 0%
- Changes(%) of basal values, coronary sinus out flow (coronary sinus out flow; 0.2 mg/kg i.v., imm.): +4.0%
- Changes(%) of basal values, coronary sinus out flow (coronary sinus out flow; 0.6 mg/kg i.v., 1 min): +2.5%
- Changes(%) of basal values, coronary sinus out flow (coronary sinus out flow; 0.6 mg/kg i.v., 5 min): +0.5%
- Changes(%) of basal values, coronary sinus out flow (coronary sinus out flow; 0.6 mg/kg i.v., 10 min): 0%
- Changes(%) of basal values, coronary sinus out flow (coronary sinus out flow; 0.6 mg/kg i.v., 20 min): 0%
- Changes(%) of basal values, coronary sinus out flow (coronary sinus out flow; 0.6 mg/kg i.v., 30 min): 0%
- Changes(%) of basal values, coronary sinus out flow (coronary sinus out flow; 0.6 mg/kg i.v., 40 min): 0%
- Changes(%) of basal values, coronary sinus out flow (coronary sinus out flow; 0.6 mg/kg i.v., imm.): +6.0%
- Changes(%) of basal values, coronary sinus out flow (coronary sinus out flow; 2.0 mg/kg i.v., 1 min): -3.0%
- Changes(%) of basal values, coronary sinus out flow (coronary sinus out flow; 2.0 mg/kg i.v., 5 min): +3.0%
- Changes(%) of basal values, coronary sinus out flow (coronary sinus out flow; 2.0 mg/kg i.v., 10 min): +9.0%
- Changes(%) of basal values, coronary sinus out flow (coronary sinus out flow; 2.0 mg/kg i.v., 20 min): +4.0%
- Changes(%) of basal values, coronary sinus out flow (coronary sinus out flow; 2.0 mg/kg i.v., 30 min): 0%
- Changes(%) of basal values, coronary sinus out flow (coronary sinus out flow; 2.0 mg/kg i.v., imm.): -13.0%
- Changes(%) of basal values, heart rate (heart rate; 0.2 mg/kg i.v., 1 min): 0%
- Changes(%) of basal values, heart rate (heart rate; 0.2 mg/kg i.v., 5 min): -1.5%
- Changes(%) of basal values, heart rate (heart rate; 0.2 mg/kg i.v., 10 min): -1.0%
- Changes(%) of basal values, heart rate (heart rate; 0.2 mg/kg i.v., 20 min): 0%
- Changes(%) of basal values, heart rate (heart rate; 0.2 mg/kg i.v., 30 min): 0%
- Changes(%) of basal values, heart rate (heart rate; 0.2 mg/kg i.v., imm.): +1.5%
- Changes(%) of basal values, heart rate (heart rate; 0.6 mg/kg i.v., 1 min): +0.5%
- Changes(%) of basal values, heart rate (heart rate; 0.6 mg/kg i.v., 5 min): -0.5%
- Changes(%) of basal values, heart rate (heart rate; 0.6 mg/kg i.v., 10 min): 0%
- Changes(%) of basal values, heart rate (heart rate; 0.6 mg/kg i.v., 20 min): -1.0%
- Changes(%) of basal values, heart rate (heart rate; 0.6 mg/kg i.v., 30 min): 0%
- Changes(%) of basal values, heart rate (heart rate; 0.6 mg/kg i.v., imm.): +1.5%
- Changes(%) of basal values, heart rate (heart rate; 2.0 mg/kg i.v., 1 min): -2.0%
- Changes(%) of basal values, heart rate (heart rate; 2.0 mg/kg i.v., 5 min): -2.0%
- Changes(%) of basal values, heart rate (heart rate; 2.0 mg/kg i.v., 10 min): -1.5%
- Changes(%) of basal values, heart rate (heart rate; 2.0 mg/kg i.v., 20 min): -1.5%
- Changes(%) of basal values, heart rate (heart rate; 2.0 mg/kg i.v., 30 min): -1.5%
- Changes(%) of basal values, heart rate (heart rate; 2.0 mg/kg i.v., imm.): +5.5%

Reference: patent US4068070A, “α-Cyanoamine compounds and a process for producing the same” (Fuji Chemical Industry Co., Ltd., priority 1974, dated 1978)
